Laboratory results: patent US20070169214A1, “Thiol methyltransferase-based selection” (priority 2004, published 2007)

Key:
E. coli M15 cells = assay: Bacterial growth (OD600) in the presence of toxin; format: cell-based, Escherichia coli; conditions: for growth of non-transgenic bacteria: E. coli M15 with empty vector pQE30, 4 h at 37° C.; for ΔOD600 (growth of transgenic bacteria): E. coli M15 with pQETMT1, 4 h at 37° C.
Experimental: E. coli M15 cells transformed with the empty vector pQE30 (referred to as non-transgenic bacteria) or pQETMT1 (hereafter referred to as transgenic bacteria) were grown as 15 ml starter cultures in LB medium supplemented with 100 μg/ml ampicillin and […] kanamycin at 37° C. for 16 h. 5 ml of each culture was then transferred to 100 ml of fresh LB medium containing the same concentrations of both antibiotics and cultures grown to an OD600 of 0.6. […] In the culture tubes, expression of the recombinant TMT protein was induced by adding […] (IPTG) to a final concentration of 1 mM. All the culture tubes were incubated at 37° C. for another 4 h. Bacterial growth at different toxin concentrations was measured by optical density (OD600) and the difference in OD600 (ΔOD600) was calculated.

HEK 293 cells = assay: Growth of transfected HEK 293 cells monitored by GFP fluorescence; format: cell-based; conditions: 0-200 mM toxin, 24 h
Experimental: A TMT insert was generated by linearizing pBluescript vector harboring the full-length clone (described in Example 2) with SpeI and ApaI and inserted into the pTracer™-SV40 mammalian expression plasmid. This vector contains a cycle-3-GFP, an improved Green Fluorescent Protein gene fused to Zeocin™ resistance gene for selection in mammalian cells. Transfection of HEK 293 cells was carried out in 24 well plates using Fugene 6™ Transfection reagent (Roche Molecular Biochemicals). A ratio of DNA to Fugene of 1:6 and 200 or 400 ng of DNA were used. Each well was seeded with 2×10^5 cells grown in a monolayer for 16 h in […] DMEM containing 10% serum. Transfection was performed on 90% confluent cells. Prior to transfection, the medium containing serum was removed and replaced with 150 μl of serum-free medium in each well. A DNA/Fugene 6 mixture was incubated for 15 min at room temperature and 100 μl of this mixture was added drop-wise to each well while cells were gently rocked. After a 3 hour incubation, another 250 μl DMEM containing 2× serum was added to each well and cells were further incubated for 48 h. […] These cells were allowed to grow for another 24 h. Growth was monitored by fluorescent microscopy to detect the presence of GFP. […] The emission of CH3I was then monitored by gas chromatography.

potato roots = assay: Potato root growth on MS with toxin (WinRhizo root length); parameters: species or system Solanum tuberosum cv Russet Burbank; conditions: increasing toxin concentration, 10 days, transgenic and non-transgenic roots
Source text: pBluescript plasmid harboring the full-length TMT1clone (SEQ ID NO:1) was linearized with BamHI and KpnI and cloned in a sense orientation into the binary pBin19 double enhancer vector between the 35S promoter of CaMV and the Nos terminator. Agrobacterium rhizogenes wild-type strain A4 was then transformed either with the pBin/TMT vector or pBin vector alone. Freshly cut Solanum tuberosum cv Russet Burbank petioles were decontaminated by soaking in diluted commercial bleach (10%) containing 0.01% Tween-20™ for 10 min, followed by three 10 min washes in sterile water. The petioles were then cut into 4 cm segments and cultured apical side down in MS medium containing 0.4% phytagel™. The upper parts of the petioles were infected with freshly streaked A. rhizogenes A4 carrying the pBin19 vector alone (non-transgenic roots) or with the pBin vector with the TMT insert (transgenic roots). Roots started appearing after about 10 days. […]
Every 2 weeks, the carbenicillin concentration was halved until no carbenicillin was present in the medium. All roots were then screened for TMT activity using an in vivo technique where KI in solution (100 mM) was added to the roots and emission of CH3I was detected using gas chromatography. […] The roots were placed in MS containing 0.2% phytagel and allowed to grow for 10 days after which the growth was measured using WinRhizo™ software.

A. thaliana plants = assay: In vivo TMT activity in 3 Arabidopsis phenotypes grown on SCN
Experimental: (§1) In vivo assay: This assay was used in the studies described herein. In vivo TMT activity is measured in 10 leaf disks placed on a Whatman filter paper (4.25 cm) in a 50-ml Erlenmeyer flask, and incubated with 2 ml of a 100 mM KI solution (Saini et al., [1995] Plant, Cell and Environment, 18:1027-1033). The flask is sealed with a rubber stopper and CH3I formed in the headspace is quantified after 2 h by gas chromatography. Assays for alternative substrates or inhibitors of the enzyme contained 20 mol m^−3 KI (the known substrate) and a range of concentrations of the compound to be tested. In the assay for HS^− methylation, KI in the above assay is replaced with 20 mM (NH4)2S.
With reference to FIG. 36, the effect of SCN on TMT activity in 3 Arabidopsis phenotypes was analysed. […] As the concentration of SCN increased the TT and Tt plants were less and less able to methylate the SCN. TT plants could methylate the SCN up to 10 mM while the Tt had no activity after 2.5 mM, as it appears that higher levels of SCN may have some toxicity to the heterozygote plant.

tobacco plants = assay: In vivo TMT activity of tobacco plants grown on SCN; conditions: transgenic tobacco plant
Experimental: as §1
With reference to FIG. 34, the effect of SCN on in vivo TMT activity of transgenic/non-transgenic tobacco plants was analysed. […] As the concentration of SCN increased to 5 mM, the transgenic plant was able to methylate the SCN but beyond 5 mM, the activity decreased as higher SCN levels appear to confer some toxicity to the plant.

Structure (SMILES)	growth of non-transgenic bacteria (E. coli M15 cells; 250 mM KI)	ΔOD600 (growth of transgenic bacteria) (E. coli M15 cells; 250 mM KI)	GFP fluorescence (cell viability), transgenic vs non-transgenic cells (HEK 293 cells)	root growth (root length) (potato roots)	growth of non-transgenic bacteria (E. coli M15 cells; 200 mM NaSCN)	ΔOD600 (growth of transgenic bacteria) (E. coli M15 cells; 200 mM NaSCN)	SCN concentration up to which plants could methylate SCN (TMT activity) (A. thaliana plants; TT (wild type) plants)	SCN concentration after which there was no TMT activity (A. thaliana plants; Tt (heterozygous) plants)	SCN concentration beyond which in vivo TMT activity decreased (tobacco plants)
I [KI]	growth of the non-transgenic bacteria was halted	0.547	more fluorescence in the transgenic than in the non-transgenic cells	–	–	–	–	–	–
N#C[S-].[Na+] [NaSCN]	–	–	more fluorescence in the transgenic than in the non-transgenic cells	growth of both transgenic and non-transgenic roots was affected	halted non-transgenic bacterial growth	0.377	up to 10 mM	> 2.5 mM	> 5 mM
